Data set [1] has as its system K562 tumor target cells. The experiment in a line: NK cell cytotoxic activity (4-hr 51Cr-release assay) before and after oral administration to healthy subjects, Example 1. The class given is in vivo, human. The procedure:
This example compares the effect of ascorbic acid and the formulation of the present invention on NK cell activity, NK cell population, and peripheral blood leukocyte (PBL) uptake.
(§1) Lymphocytes were prepared from fresh heparinized peripheral venous blood by Ficoll-Hypaque density gradient centrifugation (Litton Bionetics, Rockville, Md.). Cells were washed three times with Hanks' balanced salt solution (HBSS), and resuspended to a concentration of 10×10^6 cells/ml in a complete medium (CM), that consisted of RPMI-1640 supplemented with 10% fetal calf serum and 1% antibiotics (100 U penicillin and 100 μg/ml streptomycin) and within an hour of isolation cells were used for different assays.
(§2) Chromium-release Assay for measuring NK cell activity:
(§3) A standard 4-hr ^51 Cr-release assay was employed. Briefly, 1×10^4 ^51 Cr-labelled K562 tumor target cells in
(§4) 0.1 ml CM were added to different wells of a microtiter plate. Effector cells were then pipetted into quadruplicate wells to give effector: target (E:T) ratios of 6:1, 12:1, 25:1 and 50:1. After a 4-hr incubation at 37° C., the microtiter plates were centrifuged at 1400 rpm for 5 min and 0.1 ml of supernatant from each well was collected and counted in a gamma counter. The percentages of isotope released were calculated by the following formula: [formula]
(§5) Total release was measured by adding […] Triton X-100 to designated wells. Lytic units (LU) were calculated from effector titration curves. One LU was defined as the number of effector cells required to achieve 20% lysis.
In FIG. 1A the NK cell activity is represented in lytic units (LU) on the vertical axis with time being represented in hours on the horizontal axis.
In FIG. 1B, the hollow bars represent the subject's NK cell activity before administration of either ascorbic acid alone or the formulation of the present invention.

The nature of data set [2]: clinical. Particulars: human, in vivo, 60 mg/kg. The protocol: as §1
The subject of data set [3] is peripheral blood leukocyte (PBL). Put plainly: clinical. The conditions noted are these: human, in vivo, 0 min. The procedure: as §1
For the next data set, the system named is NK cell population. Put plainly: NK cell population and sub-populations by flow cytometry, Example 1. It counts as in vivo, human. The conditions noted are these: 0 and 24 hours post treatment; Anti-CD56 and Anti-CD3. The protocol:
NK cell subset enumeration was carried out in ascorbate-treated and non-treated cell populations. A single laser flow cytometer (Epics Profile: Coulter Epics, Inc., Hialeah, Fla.), which discriminates forward and right-angle light scatter, as well as two colors, was used with an appropriate software package (Quad Stat: Coulter). Mononuclear cell populations were determined by two-color direct immunofluorescence, by using a whole-blood staining technique with the appropriate monoclonal antibody and flow cytometry. […]
lymphocyte markers, bit maps were set on the lymphocyte population of the forward-angle light scatter versus a 90° light scatter histogram. The percentage of positively stained cells for each marker pair, as well as the percentage of doubly stained cells, was determined. Estimates of the absolute numbers of lymphocyte positive for the respective surface markers were determined by multiplying peripheral lymphocyte cell count by the percentage of cells positive for each surface marker.
Total NK cell population and its sub-populations were also examined in this example. The total NK cell population and its sub-populations were determined both post-treatment with ascorbic acid alone and post-treatmentwith the formulation of the present invention by flow cytometry, using Anti-CD56 and Anti-CD3 monoclonal antibodies, respectively.
In general terms: Flow cytometry measures light scatter and fluorescence of single cells or particles in a stream.

Data set [4] concerns K562 tumor target cells. The experiment in a line: NK cell activity with repeated administration every four hours, Example 2. It counts as in vivo, human. Particulars: 15 mg/kg ascorbic acid or biologically equivalent amount every four hours, twenty-four hours. The procedure: as §2, §3, §4, §5
The next data set concerns glutathione. The conditions noted are these: 500 mg/day; cited from earlier work.
Data set [5] has as its system skin tumors and estrogen-induced renal tumors. The conditions noted are these: in vivo; cited from earlier work.
The subject of data set [6] is breast and gastric cancer. Particulars: cited from earlier work.
Data set [7] can be described thus: clinical. Particulars: human, plasma, 60 mg/kg.
Method: Twenty-two healthy subjects were randomly selected for this example. The subjects ranged in age from 20 to 24 years, with a mean of 22 years. The subjects had not ingested any medications for at least two weeks before participation in the study.
Clearance and the uptake of ascorbic acid was measured in the plasma and mononuclear cell, respectively.
Briefly described, 5×10^6 cells were suspended in 0.2 ml of PBS, sonicated for 30 seconds, and 1 ml of 5% trichloroacetic acid (TCA) was added. The mixture was centrifuged to remove the precipitates and the supernatant was used to measure the level of ascorbic acid. From the mixture, 1.2 ml of this supernatant or 0.5 ml plasma was mixed with 0.4 ml of Dinitrophenyl-hydrazine-Thiourea-Copper (DCT) reagent, incubated at 37° C. for 3 hours, then transferred to an ice-water bath for 10 minutes. Then 2 ml of cold 12M H2 SO4 was added and the mixture was kept at room temperature for 20 min.

In the data set on K562 tumor target cells [1] (60 mg/kg ascorbic acid, twenty-four hours post-administration, FIG. 1A), `O=C1O[C@H]([C@@H](O)CO)C(O)=C1O` [ascorbic acid, 3-oxo-1-gulofuranolactone] had an NK cell activity of 90 LU. For the same compound, the NK cell activity result in the data set on K562 tumor target cells [1] (60 mg/kg, forty-eight hours, FIG. 1A) is “declined to near pre-administration levels”. Also, the “NK cell activity change” value in the data set on K562 tumor target cells [1] (60 mg/kg, one to two hours after administration, FIG. 1A) is recorded as “transitory decrease in NK cell activity”. Further, in the data set with K562 tumor target cells [1] (60 mg/kg, post-administration, FIG. 1A), the “time of recovery of NK cell activity to pre-administration levels” value is reported as “about four”. Besides, the “period of inhibition of NK cell activity” value in the data set on K562 tumor target cells [1] (early transient phase, followed by enhancement) is on record as “two to four”. For the same compound, the “overall suppression of NK cell activity (summary)” value in the data set with K562 tumor target cells [1] (shortly after administration) is reported as “transient suppression or inhibition of NK cell activity”. The “suppression of NK cell activity” value in the data set with K562 tumor target cells [1] (zero to four hours post-administration, FIG. 1A) is listed as “transient suppression of NK cell activity”. Also, in “clinical [2]”, the concentration at 1 h worked out at 64 ng/mL, the concentration at 2 h worked out at 101 ng/mL, the concentration at 4 h stood at 95 ng/mL and the concentration at 8 h worked out at 79 ng/mL. In the data set “clinical [2]”, this compound registered a concentration at 24 h of 74 ng/mL and a concentration at 48 h of 49 ng/mL. Moreover, the “mean (M±SD) uptake of ascorbic acid by 5×10^6 white blood cells” value in [3] came to 5.1 μg/dl. For the same compound, the “percentages of total NK cell population, or its sub-populations” value with NK cell population is reported as “no significant effect”. Besides, the NK cell activity result in the data set with K562 tumor target cells [4] is on record as “repeated suppression of NK cell activity”. In addition, the “plasma concentrations of glutathione” value in the data set with glutathione is on record as “increases plasma concentrations of glutathione”. For the same compound, the tumor regression entry in data set [5] was “causes regression of skin tumors and estrogen-induced renal tumors in vivo”. Besides, the antitumor activity entry in data set [6] was “demonstrates antitumor activity against breast and gastric cancer”. In the data set “clinical [7]”, this compound registered a concentration at 1 h of roughly 42000 ng/mL.

The values above are taken from patent US5626883A, “Ascorbic acid compositions providing enhanced human immune system activity” (priority 1994, dated 1997).
